Where a SMILES comes first, the peptide text is derived from it.

One may read the Kd as the concentration at which binding is half-saturated.

Data set [1] relates to islet amyloid polypeptide, Aβ and α-synuclein. Conditions: cited from earlier work. The source says:
In this study, we apply this design strategy to generate a bicyclic peptide capable of binding Aβ42 and of interfering with its aggregation process. The aggregation of Aβ42 is a complex process resulting from the combination of different microscopic steps and involving a variety of molecular species[35],[36]. […] Therefore, some therapeutic strategies aim at decreasing the concentrations of these oligomeric species by delaying or preventing their formatio ...

The subject of the next data set is Aβ42. Description: ThT fluorescence aggregation kinetics of Aβ42. It counts as biochemical. Conditions: ThT assay. The method, then: In order to investigate the effects of DesBP on the aggregation of Aβ42, we carried out in vitro aggregation assays using thioflavin T (ThT) as an amyloid-specific fluorescent probe[63],[64]. We monitored fibril formation for Aβ42 at a concentration of 2 µM in the absence and presence of a range of concentrations (0.25–16 fold excess) of DesBP at 37 °C under quiescent conditions, using a highly reproducible protocol previously described. We then validated our results by means of far-UV circular dichroism (CD) and atomic force microscopy (AFM).
Monomeric Aβ42 peptide solutions were prepared by dissolving the lyophilized peptide in 6 M GuHCl. A Superdex 75 10/300 GL column (GE Healthcare) was used to purify Aβ42 monomers from Aβ42 oligomers and salt with a flow rate of 0.5 ml/min, and eluted in 20 mM sodium phosphate buffer (pH 8) with 200 μM EDTA. By collecting the centres of the peaks, the monomeric Aβ42 concentrations were determined from the integrated peak area with ε280 = 1,495 L mol^−1 cm^−1. Aβ42 monomers were then diluted to the target concentration with buffer and 20 μM ThT was added from a 1 mM stock. […] Assays were carried out at 37 °C under quiescent conditions in a plate reader (Fluostar Optima; BMG Labtech). ThT fluorescence was measured through the bottom of the plate with 440 nm excitation and 480 nm emission filters, with five repeats per sample. […]

A further data set has as its target T1, Aβ42 monomers (Homo sapiens, UniProt P05067).
T1 construct: the 42-residue form of the amyloid β peptide (Aβ42)
Briefly: Bio-layer interferometry (BLI) binding of DesBP to sensor-coupled Aβ42 monomers. Conditions: DesBP 50 and 100 μM, 30 °C. The method, then:
To test for direct peptide-peptide interaction, biolayer interferometry (BLI) was performed on the Octet RED96 System (ForteBio, Menlo Park, USA). DesBP was used as interaction partner for sensor-coupled Aβ42. Coupled sensors were first dipped into ForteBio kinetics buffer (PBS, 0.1% BSA, 0.02% Tween20 and 0.05% sodium azide, pH 7.4) to establish a stable baseline, then into different concentrations of DesBP and finally in pure kinetics buffer again to monitor dissociation. Both association and dissociation processes were monitored at 30 °C over 50 and 200 s, respectively. In the data analysis, all curves were globally fit with a 1:1 binding model.

In a further data set the test system is N2 worms. Description: C. elegans N2 control worms motility / fitness. It counts as in vivo. Conditions: same concentration of DesBP (40 μM); compared to effect on Aβ worms. An excerpt: We thus administered DesBP to Aβ worms at day 4 (D4) of adulthood, when Aβ42 aggregates are already formed, and paralysis is ongoing, and compared the resulting effects of the addition of DesBP to those observed in a control worm model, N2 (see “Materials and methods” section). […] On the other hand, the effects of the same concentration of DesBP to control N2 worms were negligible when compared to the effect observed on Aβ worms (Supplementary Fig. 12).
Media Standard conditions were used for the propagation of C. elegans. Briefly, the animals were synchronized by hypochlorite bleaching, hatched overnight in M9 (3 g/l KH2PO4, 6 g/l Na2HPO4, 5 g/l NaCl, […]) buffer, and subsequently cultured at 20 °C on nematode growth medium (NGM) (CaCl2 1 mM, MgSO4 1 mM, cholesterol 5 µg/ml, […] pH 6, Agar 17 g/L, NaCl 3 g/l, casein 7.5 g/l) plates seeded with the E. coli strain OP50. Saturated cultures of OP50 were grown by inoculating 50 mL of LB medium (tryptone 10 g/l, NaCl 10 g/l, yeast extract 5 g/l) with OP50 and incubating the culture for 16 h at 37 °C. NGM plates were seeded with bacteria by adding 350 µl of saturated OP50 to each plate and leaving the plates at 20 °C for 2–3 days. On day 3 after synchronization, the animals were placed on NGM plates containing 5-fluoro-2′deoxy-uridine (FUDR) (75 μM, unless stated otherwise) to inhibit the growth of offspring. […]

On to `CC(C)[C@@H](CC[C@@H](C)[C@H]1CC[C@H]2[C@@H]3[C@H](O)C[C@H]4C[C@@H](NCCCNCCCCNCCCN)CC[C@]4(C)[C@H]3CC[C@]12C)OS(=O)(=O)O` [trodusquemine], for which, in data set [1], the “modulation of aggregation process” value is on record as “redirecting them towards the formation of non-toxic aggregates”.
For `Cc1cc(C)cc(C)c1` [TMB, 1,3,5-trimethylbenzene], in the data set on Aβ42 (Supplementary Fig. 7), the “effect on Aβ42 aggregation (control compounds)” value was “slightly delayed the nucleation step of Aβ42 aggregation”. Also, the “magnitude of ThT fluorescence (control compound)” value in the data set with Aβ42 (Supplementary Fig. 7b) was “did not show significant changes on the magnitude of ThT fluorescence”.
Turning to `CC[C@H](C)[C@@H]1NC(=O)CNC(=O)[C@H](CC(C)C)NC(=O)[C@H](CCCCN)NC(=O)[C@@H](NC(=O)[C@H](C)NC(=O)[C@H](C)NC(=O)[C@@H](N)CCCNC(=N)N)CSCc2cc3cc(c2)CSC[C@H](NC(=O)[C@H](C)NC(=O)[C@H](CCCCN)NC1=O)C(=O)N[C@@H]([C@@H](C)O)C(=O)N[C@@H](CO)C(=O)N[C@@H](C(C)C)C(=O)N[C@@H](Cc1ccc(O)cc1)C(=O)N[C@@H](Cc1c[nH]cn1)C(=O)N[C@@H](C)C(=O)N[C@H](C(=O)NCC(=O)NCC(=O)N[C@@H](CCCCN)C(=O)N[C@@H](CCCNC(=N)N)C(=O)N[C@@H](CCCNC(=N)N)C(=O)O)CSC3` [DesBP] (HELM PEPTIDE1{R.A.A.C.K.L.G.I.K.A.C.T.S.V.Y.H.A.C.G.G.K.R.R}|CHEM1{[c1c(C[*:1])cc(C[*:3])cc1C[*:2]]}$PEPTIDE1,CHEM1,4:R3-1:R1|PEPTIDE1,CHEM1,11:R3-1:R2|PEPTIDE1,CHEM1,18:R3-1:R3$$$V2.0), the koff on Aβ42 monomers (pH 7.4, single-exponential fit, read-out: dissociation rate kd) worked out at 0.06 ± 0.002 s⁻¹. For the same compound, the Kd on Aβ42 monomers (Octet RED96, kinetics buffer PBS, 0.1% BSA, 0.02% Tween20, pH 7.4, association 50 s, dissociation 200 s, global fit 1:1 binding model, read-out: dissociation constant (KD)) was 640 ± 260 µM. In addition, in the data set on N2 worms, the “effect on control N2 worms” value is listed as “negligible”.
On to `O=C(O[C@@H]1Cc2c(O)cc(O)cc2O[C@@H]1c1cc(O)c(O)c(O)c1)c1cc(O)c(O)c(O)c1` [EGCG, epigallocatechin gallate], for which the “modulation of aggregation process” value in data set [1] is reported as “redirecting them towards the formation of non-toxic aggregates”.

These data come from publication PMC7498612, “A rationally designed bicyclic peptide remodels Aβ42 aggregation in vitro and reduces its toxicity in a worm model of Alzheimer’s disease” (Scientific Reports, 2020).
